{"source": "ChEMBL document CHEMBL3593212", "about": "“Synthesis and evaluation of novel 1H-pyrrolo[2,3-b]pyridine-5-carboxamide derivatives as potent and orally efficacious immunomodulators targeting JAK3” (Bioorg Med Chem, 2015)", "key": {"[1]": {"assay": "Intrinsic clearance in rat liver microsomes at 0.2 uM in presence of NADPH generating system by LC/MS/MS method", "format": "ADME", "settings": "read-out: CLH"}, "[2]": {"assay": "Intrinsic clearance in human liver microsomes at 0.2 uM in presence of NADPH generating system by LC/MS/MS method", "format": "ADME", "settings": "read-out: CLH"}, "[3]": {"assay": "Half life in Sprague-Dawley rat at 1 mg/kg, iv by LC/MS/MS method", "format": "ADME, organism-based", "settings": "in vivo"}, "[4]": {"assay": "Volume of distribution at steady state in cynomolgus monkey at 1 mg/kg, iv by LC/MS/MS method", "format": "ADME, organism-based, Macaca fascicularis", "settings": "in vivo, read-out: Vdss"}, "[5]": {"assay": "Total clearance in cynomolgus monkey at 1 mg/kg, iv by LC/MS/MS method", "format": "ADME, organism-based, Macaca fascicularis", "settings": "in vivo"}, "[6]": {"assay": "Tmax in beagle dog at 3 mg/kg, po by LC/MS/MS method", "format": "ADME, organism-based, Canis lupus familiaris", "settings": "in vivo"}, "[7]": {"assay": "AUC (0 to 24 hrs) in cynomolgus monkey at 3 mg/kg, po by LC/MS/MS method", "format": "ADME, organism-based, Macaca fascicularis", "parameters": "time < 24 hr, dose 3 mg/kg, route oral", "settings": "in vivo"}, "[8]": {"assay": "Oral bioavailability in beagle dog at 3 mg/kg by LC/MS/MS method", "format": "ADME, organism-based, Canis lupus familiaris", "settings": "in vivo"}, "[9]": {"assay": "Oral bioavailability in cynomolgus monkey at 3 mg/kg by LC/MS/MS method", "format": "ADME, organism-based, Macaca fascicularis", "settings": "in vivo"}, "Rattus norvegicus [10]": {"system": "Rattus norvegicus", "assay": "(§1) Inhibition of allograft rejection in Lewis rat vascularized heterotopic cardiac transplantation model using ACI rat as cardiac donor assessed as mean survival time by measuring cardiac allograft function by daily palpation for 28 days at 10 mg/kg, po administered beginning on day of operation once daily for 14 consecutive days (reference value: 5 days)", "format": "functional"}, "Rattus norvegicus [11]": {"system": "Rattus norvegicus", "assay": "as §1, with “10 and 20” for “10”", "format": "functional, organism-based"}, "[12]": {"target": "Tyrosine-protein kinase BTK (Homo sapiens, UniProt Q06187)", "sequence (Q06187 whole entry)": "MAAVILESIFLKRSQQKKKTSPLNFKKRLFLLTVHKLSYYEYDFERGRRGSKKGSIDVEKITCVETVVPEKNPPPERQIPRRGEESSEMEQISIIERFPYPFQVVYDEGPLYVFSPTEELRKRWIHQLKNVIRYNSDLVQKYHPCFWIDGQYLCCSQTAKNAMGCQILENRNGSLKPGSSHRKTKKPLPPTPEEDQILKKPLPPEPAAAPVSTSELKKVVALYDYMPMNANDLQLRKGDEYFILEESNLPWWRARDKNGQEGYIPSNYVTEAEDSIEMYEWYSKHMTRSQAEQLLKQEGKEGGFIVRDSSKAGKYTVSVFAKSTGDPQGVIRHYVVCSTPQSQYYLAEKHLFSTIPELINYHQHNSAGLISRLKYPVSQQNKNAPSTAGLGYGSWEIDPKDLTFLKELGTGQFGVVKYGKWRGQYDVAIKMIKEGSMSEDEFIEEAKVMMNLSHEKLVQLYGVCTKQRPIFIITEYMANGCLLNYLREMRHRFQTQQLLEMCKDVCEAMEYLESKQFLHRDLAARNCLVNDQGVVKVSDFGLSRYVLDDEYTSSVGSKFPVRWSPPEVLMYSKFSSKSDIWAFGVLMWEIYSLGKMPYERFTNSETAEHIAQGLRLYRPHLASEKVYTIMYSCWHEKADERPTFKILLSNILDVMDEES", "assay": "Inhibition of BTK (unknown origin)"}, "Focal adhesion kinase 1": {"target": "Focal adhesion kinase 1 (Homo sapiens, UniProt Q05397)", "sequence (Q05397 whole entry)": "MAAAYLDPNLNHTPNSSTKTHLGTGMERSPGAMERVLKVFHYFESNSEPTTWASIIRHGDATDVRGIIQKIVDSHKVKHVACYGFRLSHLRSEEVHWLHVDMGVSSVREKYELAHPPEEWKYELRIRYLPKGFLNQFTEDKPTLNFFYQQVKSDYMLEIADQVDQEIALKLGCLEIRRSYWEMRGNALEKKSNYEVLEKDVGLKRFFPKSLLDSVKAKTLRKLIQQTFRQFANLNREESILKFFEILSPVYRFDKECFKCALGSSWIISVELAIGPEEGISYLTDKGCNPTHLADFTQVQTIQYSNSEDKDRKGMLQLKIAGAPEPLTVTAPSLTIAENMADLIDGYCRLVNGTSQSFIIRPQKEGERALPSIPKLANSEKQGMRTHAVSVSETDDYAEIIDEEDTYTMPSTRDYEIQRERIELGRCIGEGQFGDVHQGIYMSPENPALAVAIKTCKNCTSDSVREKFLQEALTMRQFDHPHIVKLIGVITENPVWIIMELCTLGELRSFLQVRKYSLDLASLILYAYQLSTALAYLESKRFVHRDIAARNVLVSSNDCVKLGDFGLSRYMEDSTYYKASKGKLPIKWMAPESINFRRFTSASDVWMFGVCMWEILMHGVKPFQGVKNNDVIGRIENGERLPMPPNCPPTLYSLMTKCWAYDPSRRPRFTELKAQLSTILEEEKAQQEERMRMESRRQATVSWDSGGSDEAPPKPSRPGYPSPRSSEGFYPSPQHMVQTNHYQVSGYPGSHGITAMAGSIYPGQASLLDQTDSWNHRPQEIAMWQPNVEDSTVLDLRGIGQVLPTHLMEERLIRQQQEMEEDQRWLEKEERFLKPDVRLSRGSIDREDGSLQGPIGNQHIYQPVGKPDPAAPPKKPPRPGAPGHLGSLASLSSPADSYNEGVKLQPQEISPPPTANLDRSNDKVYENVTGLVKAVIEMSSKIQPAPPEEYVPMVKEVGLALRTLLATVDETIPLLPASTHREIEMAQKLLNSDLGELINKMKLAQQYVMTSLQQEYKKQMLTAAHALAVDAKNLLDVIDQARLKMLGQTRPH", "assay": "Inhibition of FAK (unknown origin)"}, "[13]": {"target": "Rho-associated protein kinase 1 (Homo sapiens, UniProt Q13464)", "assay": "Inhibition of ROCK1 (unknown origin)"}, "[14]": {"target": "Protein kinase C alpha type (Homo sapiens, UniProt P17252)", "assay": "Inhibition of PKCalpha (unknown origin)"}, "[15]": {"target": "RAC-alpha serine/threonine-protein kinase (Homo sapiens, UniProt P31749)", "sequence (P31749 whole entry)": "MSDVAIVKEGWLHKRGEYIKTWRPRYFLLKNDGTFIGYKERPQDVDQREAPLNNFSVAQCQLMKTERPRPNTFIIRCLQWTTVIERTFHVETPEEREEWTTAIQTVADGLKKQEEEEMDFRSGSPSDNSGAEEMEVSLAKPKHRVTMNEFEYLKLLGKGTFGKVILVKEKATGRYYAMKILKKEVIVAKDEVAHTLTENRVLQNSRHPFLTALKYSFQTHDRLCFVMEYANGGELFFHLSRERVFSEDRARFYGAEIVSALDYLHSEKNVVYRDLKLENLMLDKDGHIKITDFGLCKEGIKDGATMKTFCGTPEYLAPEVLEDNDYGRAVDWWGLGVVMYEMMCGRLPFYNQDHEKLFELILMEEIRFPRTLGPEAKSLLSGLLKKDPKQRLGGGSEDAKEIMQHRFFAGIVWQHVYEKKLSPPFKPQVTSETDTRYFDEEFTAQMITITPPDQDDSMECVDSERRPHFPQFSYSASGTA", "assay": "Inhibition of AKT1 (unknown origin)"}, "[16]": {"target": "Casein kinase I isoform delta (Homo sapiens, UniProt P48730)", "sequence (P48730 whole entry, canonical isoform)": "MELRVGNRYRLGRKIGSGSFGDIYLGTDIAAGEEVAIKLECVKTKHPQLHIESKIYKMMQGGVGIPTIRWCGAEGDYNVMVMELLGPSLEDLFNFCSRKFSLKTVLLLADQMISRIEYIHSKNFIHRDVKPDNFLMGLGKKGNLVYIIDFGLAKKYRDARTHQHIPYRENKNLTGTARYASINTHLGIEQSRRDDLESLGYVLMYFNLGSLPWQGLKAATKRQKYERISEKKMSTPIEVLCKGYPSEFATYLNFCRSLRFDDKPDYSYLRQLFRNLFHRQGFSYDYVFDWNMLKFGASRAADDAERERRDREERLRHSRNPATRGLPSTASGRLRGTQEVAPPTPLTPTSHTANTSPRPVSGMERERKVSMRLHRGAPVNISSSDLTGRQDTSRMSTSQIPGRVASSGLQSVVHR", "assay": "Inhibition of CK1delta (unknown origin)"}, "[17]": {"target": "RAF proto-oncogene serine/threonine-protein kinase (Homo sapiens, UniProt P04049)", "sequence (P04049 whole entry)": "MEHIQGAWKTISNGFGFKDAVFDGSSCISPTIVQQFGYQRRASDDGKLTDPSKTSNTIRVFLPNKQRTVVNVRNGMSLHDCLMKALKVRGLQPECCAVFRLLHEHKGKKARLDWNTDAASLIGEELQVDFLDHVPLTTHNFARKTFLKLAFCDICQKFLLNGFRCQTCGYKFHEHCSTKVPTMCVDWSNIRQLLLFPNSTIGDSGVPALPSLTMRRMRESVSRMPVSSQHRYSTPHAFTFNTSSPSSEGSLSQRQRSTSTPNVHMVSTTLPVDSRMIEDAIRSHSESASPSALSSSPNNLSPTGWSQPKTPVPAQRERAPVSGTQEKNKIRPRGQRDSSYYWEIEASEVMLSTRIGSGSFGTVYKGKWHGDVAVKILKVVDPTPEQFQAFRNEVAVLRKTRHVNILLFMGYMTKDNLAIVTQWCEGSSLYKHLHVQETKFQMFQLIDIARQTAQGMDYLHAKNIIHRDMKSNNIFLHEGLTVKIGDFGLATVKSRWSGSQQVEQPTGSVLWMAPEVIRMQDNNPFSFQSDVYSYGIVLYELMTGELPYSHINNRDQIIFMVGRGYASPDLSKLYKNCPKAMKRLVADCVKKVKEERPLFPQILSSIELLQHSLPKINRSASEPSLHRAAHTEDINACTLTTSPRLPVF", "assay": "Inhibition of RAF1 (unknown origin)"}, "[18]": {"target": "Bone morphogenetic protein receptor type-1A (Homo sapiens, UniProt P36894)", "sequence (P36894 whole entry)": "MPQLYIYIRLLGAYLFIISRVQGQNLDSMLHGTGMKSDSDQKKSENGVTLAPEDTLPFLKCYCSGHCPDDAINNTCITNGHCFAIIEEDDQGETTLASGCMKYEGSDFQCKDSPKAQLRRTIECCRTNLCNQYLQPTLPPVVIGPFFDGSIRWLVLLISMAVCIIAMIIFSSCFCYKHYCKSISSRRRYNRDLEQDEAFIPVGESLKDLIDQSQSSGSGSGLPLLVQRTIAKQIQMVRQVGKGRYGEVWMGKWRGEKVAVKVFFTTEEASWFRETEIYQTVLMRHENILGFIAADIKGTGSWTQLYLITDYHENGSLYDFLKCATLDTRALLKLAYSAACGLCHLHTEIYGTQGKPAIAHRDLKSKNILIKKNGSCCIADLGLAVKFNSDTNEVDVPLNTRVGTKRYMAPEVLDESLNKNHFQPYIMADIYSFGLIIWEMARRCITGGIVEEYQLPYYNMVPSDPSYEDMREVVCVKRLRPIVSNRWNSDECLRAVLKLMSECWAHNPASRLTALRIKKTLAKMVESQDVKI", "assay": "Inhibition of BMPR1A (unknown origin)"}}, "data": [{"smiles": "N#Cc1ccc(N2CC[C@@H](Nc3c(C(N)=O)cnc4[nH]ccc34)[C@@H](F)C2)nc1", "values": [{"measurement": "CLint scaled at 0.2 µM", "setting": "[1]", "result": 27.5, "unit": "mL/min/kg"}, {"measurement": "CLint scaled at 0.2 µM", "setting": "[2]", "result": 4.8, "unit": "mL/min/kg"}, {"measurement": "half-life", "setting": "[3]", "result": 3, "unit": "h"}, {"measurement": "Vd", "setting": "[4]", "result": 1.5, "unit": "L/kg"}, {"measurement": "clearance", "setting": "[5]", "result": 3.8, "unit": "mL/min/kg"}, {"measurement": "Tmax", "setting": "[6]", "result": 2.7, "unit": "h"}, {"measurement": "AUC(0-t) at 24 h", "setting": "[7]", "result": 8690, "unit": "ng·h/mL"}, {"measurement": "bioavailability", "setting": "[8]", "result": 49.1, "unit": "%"}, {"measurement": "bioavailability", "setting": "[9]", "result": 64.3, "unit": "%"}, {"measurement": "MST", "setting": "Rattus norvegicus [10]", "result": 11.5, "unit": "days"}, {"measurement": "inhibition", "setting": "Rattus norvegicus [11]", "result": "Dose-dependent effect"}, {"measurement": "IC50", "setting": "[12]", "result": "> 1", "unit": "µM"}, {"measurement": "IC50", "setting": "Focal adhesion kinase 1", "result": "> 1", "unit": "µM"}, {"measurement": "IC50", "setting": "[13]", "result": 0.19, "unit": "µM"}, {"measurement": "IC50", "setting": "[14]", "result": 0.13, "unit": "µM"}, {"measurement": "IC50", "setting": "[15]", "result": "> 1", "unit": "µM"}, {"measurement": "IC50", "setting": "[16]", "result": "> 1", "unit": "µM"}, {"measurement": "IC50", "setting": "[17]", "result": "> 1", "unit": "µM"}, {"measurement": "IC50", "setting": "[18]", "result": "> 1", "unit": "µM"}]}]}
